In the NIST ThermoML archive (doi:10.1016/j.jct.2019.03.035):
± gives the expanded uncertainty stated by the source.

Test: refractive index (other wavelength) (dimensionless); xn = mol fraction of the nth substance listed
Conditions: 288.62 K, 100 kPa, Liquid, Wavelength=632.8 nm, minimum deviation angle technique

N#Cc1ccccc1 [benzonitrile] + CCCCCCCCCC
refractive index (x1 = 0.112): 1.4196 ± 0.0003 | refractive index (x1 = 0.188): 1.4249 ± 0.0003 | refractive index (x1 = 0.34): 1.4371 ± 0.0003 | refractive index (x1 = 0.396): 1.4422 ± 0.0003 | refractive index (x1 = 0.49): 1.4514 ± 0.0004 | refractive index (x1 = 0.608): 1.4647 ± 0.0004 | refractive index (x1 = 0.702): 1.4771 ± 0.0004 | refractive index (x1 = 0.821): 1.4952 ± 0.0004 | refractive index (x1 = 0.912): 1.5105 ± 0.0005 | refractive index (x1 = 1): 1.5277 ± 0.0003
